Data from patent US9815833B2, “Pyridine derivative and medical use thereof” (Chengdu Easton Biopharmaceuticals Co., Ltd., priority 2013, dated 2017).

Tests used:
APTT of healthy mice = assay: Effects on APTT of healthy mice; assay type: in vivo, KM mice; details: 5 mg/kg i.g.; for APTT (sec): KM mice, blood collected 1 hour after administration, x ± SD, 10 mice per group; for anticoagulant effect (APTT) compared with positive drug Apixaban: same dose
Excerpt: Test for four coagulation parameters (including prothrombin time (PT), activated partial thromboplastin time (APTT), thrombin time (TT) and fibrinogen (FIB)) belongs to one of clinical inspection items, and is necessary to thrombotic disease inspections or before the surgery. APTT mainly reflects whether the intrinsic coagulation system status is normal or not. Accordingly, the APTT value is used as a detection indicator in this test of the present invention. The anticoagulant effects of the compounds prepared in the Examples of the present invention were evaluated through the effects thereof on APTT of mice.
KM mice, weighing 28-30 g, male, 170 mice, provided by Chengdu Dashuo Biological Technology Co., Ltd.; Production facility license: SCXK (Chuan) 2008-24. Animals were housed in the animal room after purchased, adaptively observed for at least three days, and used for assays unless they were qualified for the quarantine standard.
(1) Grouping: mice were grouped and tested according to Table 1, wherein there were 10 mice in each group.
Mice in each group were administrated with the corresponding investigational drugs (mice in control group were administrated with the normal saline). At 1 hour after administration, blood was collected into 0.5 ml vacuum blood-collection tube containing sodium citrate from mice orbit. APTT values of animals were measured after collecting the blood samples.
Excel was used for statistics, experimental data were expressed as (x±SD), and two-sided T-test method was used to statistically compare the experimental data among multiple groups.

[1] = Pharmacokinetic studies on healthy rats; assay type: in vivo; details: male, rat, po, SD rats, 10 mg/kg i.g., plasma; for AUC(0-t): read-out: AUC0-24
Excerpt: SD rats were used as test animals, and LC/MS/MS method was applied for measuring the drug concentrations of rats at different time after administrating the compounds of the present invention by gavage, respectively. Pharmacokinetic behaviors of the compounds of the present invention on rats were studied, so as to evaluate the pharmacokinetic characteristics thereof.
SD rats, weighing 180-220 g, male, 40 rats, 5 rats in each group, provided by Chengdu Dashuo Biological Technology Co., Ltd.; Production facility license: SCXK (Chuan) 2008-24. Animals were housed in the animal room after purchased, adaptively observed for at least three days, and used for assays unless they were qualified for the quarantine standard.
3.1 Grouping: the rats were randomly grouped according to Table 3, with no significant difference among the groups;
Rats in each group was administrated by gavage with the corresponding investigational drugs according to Table 3, at 5 min, 10 min, 20 min, 30 min, 1 h, 2 h, 4 h, 6 h, 8 h, 10 h, 12 h, 24 h after administration, 0.5 ml of blood was taken into the vacuum blood-collection tubes containing heparin sodium, and centrifuged at 5,000 rpm to obtain plasma which was stored at −20° C.
50 μL plasma at each time after administration was taken, then 150 μL of acetonitrile was added, which was subjected to vortex at 1500 rpm for 2 minutes. Solution was centrifuged for 15 minutes (3500 r/min), after that 10 μL supernatant was analyzed by HPLC/MS/MS.
The pharmacokinetic behaviors of the investigational compounds were subjected to compartmental model fitting, and DAS 2.0 software was used to calculate the main pharmacokinetic parameters.

human FXa = human FXa (Homo sapiens, UniProt P00742); assay: Human FXa inhibition assay (fluorogenic substrate); assay type: biochemical; details: human FXa 1 nM, substrate 106.7 μM, 30 minutes at room temperature, pH 8.0
human FXa, sequence (P00742 235-488 limits assumed): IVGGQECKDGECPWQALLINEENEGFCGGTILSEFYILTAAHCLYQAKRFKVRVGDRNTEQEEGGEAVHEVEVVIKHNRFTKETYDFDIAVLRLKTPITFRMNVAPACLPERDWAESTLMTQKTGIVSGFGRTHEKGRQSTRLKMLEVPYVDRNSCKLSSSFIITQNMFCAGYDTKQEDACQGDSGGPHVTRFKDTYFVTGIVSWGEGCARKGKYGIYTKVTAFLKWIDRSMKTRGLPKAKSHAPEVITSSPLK
human FXa, sequence (P00742 41-179 partner limits assumed): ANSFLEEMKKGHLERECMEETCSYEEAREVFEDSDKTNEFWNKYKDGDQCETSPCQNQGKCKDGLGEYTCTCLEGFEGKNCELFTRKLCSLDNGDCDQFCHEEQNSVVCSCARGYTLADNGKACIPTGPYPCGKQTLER
Experimental: Inhibitory effects of the compounds of the present invention on human FXa were studied, to measure IC50 values thereof on human FXa.
human FXa enzyme (Sekisui Diagnostics, REF 526);
Fluorogenic substrate for the FXa assay (American diagnostic, Product No. 222F);
Buffer: 20 mM Tris-HCl, 200 mM NaCl, 2.5 mM CaCl2, pH 8.0.
(2) 10 mM of each compound was 5-fold diluted serially with buffer to different concentrations (from 40 μM to 0.00002048 μM);
(3) 6 μL of the above diluted solutions of Step (2) were added into each well of 384-well plate to make a final volume of 60 μL, and the final concentration of the compound ranged from 4 μM to […];
(4) 30 μL of human FXa enzyme (2 nM) was added into each well, with a final concentration of 1 nM;
(5) 24 μL human FXa fluorescent enzyme substrate (266.7 μM) was added into each well, with a final concentration of 106.7 μM;
(6) the plate was gently shaked for 5 minutes and then incubated for 30 minutes at room temperature, with avoidance from light;
(7) fluorescence signal was read at 360/440 nm, the inhibition percentage was measured, and 4 Parameter Logistic Model in Xlfit software was employed to calculate IC50.

SMILES | APTT (sec) (APTT of healthy mice) | APTT value compared with the control group (APTT of healthy mice; mice, 1 h after administration, P<0.01) | Cmax [1] [ng/mL] | Tmax [1] [h] | half-life [1] [h] | AUC(0-t) [1] [ng·h/mL] | anticoagulant effect (APTT) compared with positive drug Apixaban (APTT of healthy mice; mice, 1 h after administration) | IC50 (human FXa) [nM]
COc1ccc(-n2nc(C(N)=O)c3c2C(=O)N(c2ccc(N4CCCCC4=O)cc2)CC3)cc1 [Apixaban, reference compound] | 21.46 ± 2.32 * * sec | significantly increase | 6850 | 0.5 | 5.2 | 12900 | – | –
CSc1ccc(-n2nc(C(N)=O)c3c2C(=O)N(c2ccc(N4CCCCC4=O)cc2)CC3)cc1 [Example 2, 1-(4-methylthiophenyl)-7-oxo-6-[4-(2-oxo-piperidin-1-yl)phenyl]-4,5,6,7-tetrahydro-1H-pyrazolo[3,4-c]pyridine-3-carboxamide] | 24.50 ± 2.50 * * ^Δ sec | – | – | – | – | – | superior to positive drug Apixaban | –
NC(=O)c1nn(-c2ccccc2F)c2c1CCN(c1ccc(N3CCCCC3=O)cc1)C2=O [Example 3, 1-(2-fluorophenyl)-7-oxo-6-[4-(2-oxo-piperidin-1-yl)phenyl]-4,5,6,7-tetrahydro-1H-pyrazolo[3,4-c]pyridine-3-carboxamide] | 27.81 ± 3.42 * * ^ΔΔ sec | – | – | – | – | – | significantly better than positive drug Apixaban | –
COc1ccc(-n2nc(C(N)=O)c3c2C(=O)N(c2ccc(N4CCCCC4=O)cc2)CC3)cc1F [Example 4, 1-(3-fluoro-4-methoxyphenyl)-7-oxo-6-[4-(2-oxo-piperidin-1-yl)phenyl]-4,5,6,7-tetrahydro-1H-pyrazolo[3,4-c]pyridine-3-carboxamide] | 24.78 ± 2.64 * * ^Δ sec | – | – | – | – | – | superior to positive drug Apixaban | –
NC(=O)c1nn(-c2ccccc2F)c2c1CCN(c1ccc(N3CCCC3=O)cc1)C2=O [Example 6, 1-(2-fluorophenyl)-7-oxo-6-[4-(2-oxo-pyrrolidin-1-yl)phenyl]-4,5,6,7-tetrahydro-1H-pyrazolo[3,4-c]pyridine-3-carboxamide] | 27.32 ± 3.12 * * ^ΔΔ sec | – | 7560 | 0.3 | 5.8 | 19800 | significantly better than positive drug Apixaban | –
NC(=O)c1nn(-c2cc(F)cc(F)c2)c2c1CCN(c1ccc(N3CCCC3=O)cc1)C2=O [Example 8, 1-(3,5-difluoro-phenyl)-7-oxo-6-[4-(2-oxo-pyrrolidin-1-yl)phenyl]-4,5,6,7-tetrahydro-1H-pyrazolo[3,4-c]pyridine-3-carboxamide] | 27.82 ± 2.71 * * ^ΔΔ sec | – | 7860 | 0.3 | 6.2 | 20100 | significantly better than positive drug Apixaban | –
COc1ccc(-n2nc(C(N)=O)c3c2C(=O)N(c2ccc(N4CCCC4=O)cc2C)CC3)cc1 [Example 9, 1-(4-methoxyphenyl)-7-oxo-6-[2-methyl-4-(2-oxo-pyrrolidin-1-yl)phenyl]-4,5,6,7-tetrahydro-1H-pyrazolo[3,4-c]pyridine-3-carboxamide] | 31.29 ± 2.80 * * ^ΔΔ sec | – | 9360 | 0.2 | 6.4 | 36400 | significantly better than positive drug Apixaban | 0.078
COc1ccccc1-n1nc(C(N)=O)c2c1C(=O)N(c1ccc(N3CCCC3=O)cc1C)CC2 [Example 10, 1-(2-methoxyphenyl)-7-oxo-6-[2-methyl-4-(2-oxo-pyrrolidin-1-yl)phenyl]-4,5,6,7-tetrahydro-1H-pyrazolo[3,4-c]pyridine-3-carboxamide] | 24.67 ± 2.37 * * ^Δ sec | – | – | – | – | – | superior to positive drug Apixaban | –
Cc1ccc(-n2nc(C(N)=O)c3c2C(=O)N(c2ccc(N4CCCC4=O)cc2C)CC3)c(C)c1 [Example 13, 1-(2,4-dimethyl-phenyl)-7-oxo-6-[2-methyl-4-(2-oxo-pyrrolidin-1-yl)phenyl]-4,5,6,7-tetrahydro-1H-pyrazolo[3,4-c]pyridine-3-carboxamide] | 24.78 ± 2.67 * * ^Δ sec | – | – | – | – | – | superior to positive drug Apixaban | –
COc1ccc(-n2nc(C(N)=O)c3c2C(=O)N(c2ccc(N4CCCC4=O)cc2C)CC3)cc1F [Example 15, 1-(3-fluoro-4-methoxyphenyl)-7-oxo-6-[2-methyl-4-(2-oxo-pyrrolidin-1-yl)phenyl]-4,5,6,7-tetrahydro-1H-pyrazolo[3,4-c]pyridine-3-carboxamide] | 27.97 ± 2.32 * * ^ΔΔ sec | – | 8750 | 0.25 | 6.5 | 32400 | significantly better than positive drug Apixaban | 0.124
COc1ccc(-n2nc(C(N)=O)c3c2C(=O)N(c2ccc(N4CCCCC4=O)cc2C)CC3)cc1 [Example 19, 1-(4-methoxyphenyl)-7-oxo-6-[2-methyl-4-(2-oxo-piperidin-1-yl)phenyl]-4,5,6,7-tetrahydro-1H-pyrazolo[3,4-c]pyridine-3-carboxamide] | 26.73 ± 3.12 * * ^ΔΔ sec | – | – | – | – | – | significantly better than positive drug Apixaban | –
Cc1cc(N2CCCCC2=O)ccc1N1CCc2c(C(N)=O)nn(-c3cccc(F)c3)c2C1=O [Example 20, 1-(3-fluorophenyl)-7-oxo-6-[2-methyl-4-(2-oxo-piperidin-1-yl)phenyl]-4,5,6,7-tetrahydro-1H-pyrazolo[3,4-c]pyridine-3-carboxamide] | 24.71 ± 3.20 * * ^Δ sec | – | – | – | – | – | superior to positive drug Apixaban | –
COc1ccc(-n2nc(C(N)=O)c3c2C(=O)N(c2ccc(N4CCCCC4=O)cc2OC)CC3)cc1 [Example 21, 1-(4-methoxyphenyl)-7-oxo-6-[2-methoxy-4-(2-oxo-piperidin-1-yl)phenyl]-4,5,6,7-tetrahydro-1H-pyrazolo[3,4-c]pyridine-3-carboxamide] | 24.65 ± 2.18 * * ^Δ sec | – | – | – | – | – | superior to positive drug Apixaban | –
